Where “and” joins values, the source holds several entries; their conditions need not be identical. Equal entries are not always repeated.
Key:
[1] = Blood pressure of anaesthetized normotensive rats; format: in vivo, rat
Protocol: Eighteen normotensive rats were anaesthetized with thiopental (70 mg/kg) by ip injection. The left carotid artery was cannulated with tubing filled with heparin solution in saline to facilitate pressure measurements using Apparatus PowerLab 4/35 (ADInstruments, Australia). Blood pressure was measured: before ip administration of 4-OH-Guanabenz at the doses of 2 or 5 or 10 mg/kg b.w. or water – time 0 min (control pressure) and continuously during the next 60 min.

[2] = Blood pressure, 24-h telemetric method, normotensive rats; format: in vivo, rat; settings: rat, 5 mg/kg
Protocol: The blood pressure of rats treated with the tested compound was measured for a 24 h period after ip treatment (5 mg/kg b.w.) with a special telemetric system Stellar (TSE-Systems, Germany).
Surgery: The operation was carried out over 30 min under sterile conditions. Rats were anaesthetized with ketamine and xylasine (intramuscular injection: 100 mg/kg and 10 mg/kg). Before surgery and for 7 days after, the animals were also treated with cefuroxime (20 mg/kg/day) via intramuscular injection and ketoprofen (5 mg/kg/day) via ip injection. […] The transmitter was sutured to the peritoneal cavity.
The rats were individually caged for 2 weeks to heal after surgical cut. The animals were then placed in pairs in cages to reduce their isolation stress. Blood pressure was measured: before ip administration of the compounds – time 0 min and 24 h thereafter.

[3] = 2 mg/kg, time 0, individual rats 1-6
[4] = 2 mg/kg, time 5, individual rats 1-6
[5] = 2 mg/kg, time 10, individual rats 1-6
[6] = 2 mg/kg, time 15, individual rats 1-6
[7] = 2 mg/kg, time 20, individual rats 1-6
[8] = 2 mg/kg, time 30, individual rats 1-6
[9] = 2 mg/kg, time 40, individual rats 1-6
[10] = 2 mg/kg, time 50, individual rats 1-6
[11] = 2 mg/kg, time 60, individual rats 1-6
[12] = 5 mg/kg, time 0, individual rats 1-6
[13] = 5 mg/kg, time 5, individual rats 1-6
[14] = 5 mg/kg, time 10, individual rats 1-6
[15] = 5 mg/kg, time 15, individual rats 1-6
[16] = 5 mg/kg, time 20, individual rats 1-6
[17] = 5 mg/kg, time 30, individual rats 1-6
[18] = 5 mg/kg, time 40, individual rats 1-6
[19] = 5 mg/kg, time 50, individual rats 1-6
[20] = 5 mg/kg, time 60, individual rats 1-6
[21] = 10 mg/kg, time not printed (1st of 9 lines), individual rats 1-6
[22] = 10 mg/kg, time not printed (2nd of 9 lines), individual rats 1-6
[23] = 10 mg/kg, time not printed (3rd of 9 lines), individual rats 1-6
[24] = 10 mg/kg, time not printed (4th of 9 lines), individual rats 1-6
[25] = 10 mg/kg, time not printed (5th of 9 lines), individual rats 1-6
[26] = 10 mg/kg, time not printed (6th of 9 lines), individual rats 1-6
[27] = 10 mg/kg, time not printed (7th of 9 lines), individual rats 1-6
[28] = 10 mg/kg, time not printed (8th of 9 lines), individual rats 1-6
[29] = 10 mg/kg, time not printed (9th of 9 lines), individual rats 1-6

N=C(N)N/N=C/c1c(Cl)cc(O)cc1Cl [4HOGuanabenz]
diastolic pressure [1, 3]: 104 mmHg and 92 mmHg and 99 mmHg and 108 mmHg and 82 mmHg and 91 mmHg | systolic pressure [1, 3]: 135 mmHg and 127 mmHg and 134 mmHg and 140 mmHg and 114 mmHg and 116 mmHg | diastolic pressure [1, 4]: 110 mmHg and 93 mmHg (2×) and 102 mmHg and 104 mmHg and 89 mmHg | systolic pressure [1, 4]: 140 mmHg and 125 mmHg and 136 mmHg and 137 mmHg and 119 mmHg and 116 mmHg | diastolic pressure [1, 5]: 105 mmHg and 88 mmHg (2×) and 96 mmHg and 99 mmHg and 92 mmHg | systolic pressure [1, 5]: 134 mmHg and 120 mmHg and 130 mmHg (2×) and 119 mmHg and 116 mmHg | diastolic pressure [1, 6]: 103 mmHg and 86 mmHg (2×) and 94 mmHg and 99 mmHg and 89 mmHg | systolic pressure [1, 6]: 133 mmHg and 117 mmHg and 128 mmHg and 129 mmHg and 115 mmHg and 114 mmHg | diastolic pressure [1, 7]: 99 mmHg and 84 mmHg and 92 mmHg and 96 mmHg and 86 mmHg and 85 mmHg | systolic pressure [1, 7]: 128 mmHg and 115 mmHg and 124 mmHg and 125 mmHg and 112 mmHg and 111 mmHg | diastolic pressure [1, 8]: 96 mmHg and 85 mmHg and 91 mmHg and 94 mmHg and 82 mmHg and 86 mmHg | systolic pressure [1, 8]: 125 mmHg and 111 mmHg and 120 mmHg and 121 mmHg and 106 mmHg and 107 mmHg | diastolic pressure [1, 9]: 101 mmHg and 86 mmHg and 90 mmHg and 93 mmHg and 79 mmHg and 85 mmHg | systolic pressure [1, 9]: 131 mmHg and 116 mmHg and 119 mmHg (2×) and 104 mmHg and 105 mmHg | diastolic pressure [1, 10]: 99 mmHg and 83 mmHg and 90 mmHg and 95 mmHg and 76 mmHg and 85 mmHg | systolic pressure [1, 10]: 129 mmHg and 110 mmHg and 116 mmHg and 124 mmHg and 101 mmHg and 104 mmHg | diastolic pressure [1, 11]: 96 mmHg (2×) and 83 mmHg and 90 mmHg and 73 mmHg and 85 mmHg | systolic pressure [1, 11]: 125 mmHg and 111 mmHg and 118 mmHg and 122 mmHg and 98 mmHg and 103 mmHg | diastolic pressure [1, 12]: 73 mmHg and 104 mmHg and 91 mmHg and 101 mmHg and 95 mmHg and 99 mmHg | systolic pressure [1, 12]: 115 mmHg and 133 mmHg and 114 mmHg and 135 mmHg and 122 mmHg and 131 mmHg | diastolic pressure [1, 13]: 71 mmHg and 106 mmHg and 112 mmHg and 113 mmHg and 100 mmHg and 108 mmHg | systolic pressure [1, 13]: 105 mmHg and 136 mmHg and 150 mmHg and 144 mmHg and 133 mmHg and 145 mmHg | diastolic pressure [1, 14]: 63 mmHg and 92 mmHg and 98 mmHg (2×) and 101 mmHg and 90 mmHg | systolic pressure [1, 14]: 97 mmHg and 121 mmHg and 129 mmHg and 132 mmHg and 120 mmHg and 130 mmHg | diastolic pressure [1, 15]: 62 mmHg and 89 mmHg and 87 mmHg and 95 mmHg and 83 mmHg and 91 mmHg | systolic pressure [1, 15]: 94 mmHg and 117 mmHg and 115 mmHg and 125 mmHg and 110 mmHg and 121 mmHg | diastolic pressure [1, 16]: 61 mmHg and 89 mmHg and 85 mmHg and 95 mmHg and 79 mmHg and 91 mmHg | systolic pressure [1, 16]: 93 mmHg and 115 mmHg and 109 mmHg and 124 mmHg and 105 mmHg and 117 mmHg | diastolic pressure [1, 17]: 63 mmHg and 90 mmHg and 86 mmHg and 93 mmHg (2×) and 77 mmHg | systolic pressure [1, 17]: 92 mmHg and 117 mmHg and 108 mmHg and 122 mmHg and 103 mmHg and 121 mmHg | diastolic pressure [1, 18]: 64 mmHg and 87 mmHg and 89 mmHg and 98 mmHg and 78 mmHg and 94 mmHg | systolic pressure [1, 18]: 92 mmHg and 111 mmHg and 109 mmHg and 127 mmHg and 107 mmHg and 119 mmHg | diastolic pressure [1, 19]: 65 mmHg and 87 mmHg and 89 mmHg and 91 mmHg and 78 mmHg and 96 mmHg | systolic pressure [1, 19]: 91 mmHg and 112 mmHg and 110 mmHg and 115 mmHg and 102 mmHg and 124 mmHg | diastolic pressure [1, 20]: 67 mmHg and 88 mmHg and 84 mmHg and 91 mmHg and 83 mmHg and 93 mmHg | systolic pressure [1, 20]: 92 mmHg and 112 mmHg and 104 mmHg and 113 mmHg and 111 mmHg and 118 mmHg | diastolic pressure [1, 21]: 75 mmHg and 81 mmHg and 116 mmHg and 86 mmHg and 114 mmHg and 107 mmHg | systolic pressure [1, 21]: 113 mmHg and 125 mmHg and 158 mmHg and 100 mmHg and 145 mmHg and 140 mmHg | diastolic pressure [1, 22]: 95 mmHg and 98 mmHg and 122 mmHg and 99 mmHg and 117 mmHg and 109 mmHg | systolic pressure [1, 22]: 125 mmHg and 126 mmHg and 177 mmHg and 111 mmHg and 164 mmHg and 139 mmHg | diastolic pressure [1, 23]: 89 mmHg and 95 mmHg and 109 mmHg and 87 mmHg and 111 mmHg and 107 mmHg | systolic pressure [1, 23]: 115 mmHg and 124 mmHg and 150 mmHg and 101 mmHg and 151 mmHg and 134 mmHg | diastolic pressure [1, 24]: 86 mmHg and 95 mmHg and 106 mmHg and 84 mmHg and 107 mmHg and 103 mmHg | systolic pressure [1, 24]: 112 mmHg and 127 mmHg and 135 mmHg and 96 mmHg and 142 mmHg and 131 mmHg | diastolic pressure [1, 25]: 84 mmHg (2×) and 92 mmHg and 108 mmHg and 103 mmHg (2×) | systolic pressure [1, 25]: 110 mmHg and 121 mmHg and 133 mmHg and 95 mmHg and 135 mmHg and 129 mmHg | diastolic pressure [1, 26]: 83 mmHg and 91 mmHg and 105 mmHg and 81 mmHg and 101 mmHg (2×) | systolic pressure [1, 26]: 108 mmHg and 123 mmHg and 135 mmHg and 91 mmHg and 132 mmHg and 127 mmHg | diastolic pressure [1, 27]: 82 mmHg and 88 mmHg and 96 mmHg and 80 mmHg and 99 mmHg and 101 mmHg | systolic pressure [1, 27]: 107 mmHg and 116 mmHg and 126 mmHg and 90 mmHg and 130 mmHg and 124 mmHg | diastolic pressure [1, 28]: 84 mmHg and 90 mmHg and 106 mmHg and 78 mmHg and 98 mmHg and 97 mmHg | systolic pressure [1, 28]: 107 mmHg and 121 mmHg and 134 mmHg and 87 mmHg and 129 mmHg and 122 mmHg | diastolic pressure [1, 29]: 83 mmHg and 92 mmHg and 99 mmHg and 78 mmHg and 101 mmHg and 98 mmHg | systolic pressure [1, 29]: 107 mmHg and 122 mmHg (2×) and 130 mmHg and 86 mmHg and 131 mmHg | diastolic pressure, mean ([2]; time 0.5): 94.25 mmHg | systolic pressure, mean ([2]; time 0.5): 131.8 mmHg | diastolic pressure, mean ([2]; time 0.75): 87.25 mmHg | systolic pressure, mean ([2]; time 0.75): 118.5 mmHg | diastolic pressure, mean ([2]; time 1): 82.5 mmHg | systolic pressure, mean ([2]; time 1): 111.8 mmHg

— paper PMC10539439 (Pharmacological Reports, 2023)
